# In patent US20260115209A1, “COMBINATION THERAPY INCLUDING COX-2 INHIBITOR FOR THE TREATMENT OF CANCER” (THE REGENTS OF THE UNIVERSITY OF CALIFORNIA, priority 2022, published 2026):
# Legend:
# [1] = system: SRC; assay: Automated IHC of active and total SRC in PDX tumors; format: in vivo, mice; conditions: both PDX models after 3 or 21 days of treatment; FIGS. 1E, 1F, 8B, 8C
# Experimental: Primary antibody was diluted in Discovery Ab Diluent.
# To detect phospho-Y419 SRC, phospho-Src (Y419) […] rabbit polyclonal supplied by R&D Systems (Cat #AF2685) was used at a titration of 1:50. […] Inhibitor was applied for 16 min.
# To detect total SRC, TOTAL SRC (36D1) rabbit monoclonal manufactured by Cell Signaling Technology (Cat #2109) was used at a titration of 1:800. […] Inhibitor was applied for 16 minutes.
# [2] = system: BRAF^V600E CRC cell lines; assay: Cell viability assays, drug combinations, shift in vemurafenib sensitivity and combination index; format: cell-based; conditions: FIG. 5C
# Experimental: To assess the growth/survival response of cell lines to single or combinatorial drug treatments, we used CellTiter-Glo cell viability assay (Promega; cat #G7571). Cell culture and luminescence readouts were performed in 96- and 384-well plates after 3-day treatments.
# To calculate CI values in FIGS. 2A, 2B, 2E, FIGS. 5C, 5E, 5G and FIG. 6A, we applied the Bliss Independence model (54,55), which uses experimental profiles and avoids inaccuracies that commonly occur with dose-effect curve estimation approaches. CI is calculated as CI=−log 2 (Eab/(Ea*Eb)), where Ea and Eb correspond to the effects of drugs a and b alone at a given concentration, and Eab corresponds to the combined effects of drugs a and b at these same concentrations. In this model, CI>0 indicates synergistic effect, CI=0 indicates additivity effect, CI<0 indicates antagonistic effect.
# To compare the effects of triple versus dual drug combinations in FIG. 3B, we calculated CI as follow: CI=−log 2 (Eabc/(Ea*Eb)), where Ea and Eb correspond to the effects of drugs a/VEM, b/GEF alone at a given concentration, and Eabc corresponds to the combined effects of drugs a and b at these same concentrations combined with a third drug (c/DAS) at the cell line-specific GI50 of DAS.
# [3] = system: SFK; assay: Western blot of SFK activation (Y419 phosphorylation); format: cell-based; conditions: BRAF^V600E CRC cell lines
# Experimental: (§1) For samples to be analyzed with the HT-KAM platform, cells at ˜85% confluency were washed three times with cold PBS and lysed with freshly prepared 1× cell lysis buffer (1 ml per 2.5×10^6 cells) (lOX Cell Lysis Buffer, Cell Signaling; cat. #9803) complemented with 1× of Halt Protease & Phosphatase (100×, ThermoScientific; cat. #1861281). Cell lysates were collected and spun down at 14,000 rpm for 15 min at 4° C. and supernatants stored at −80° C. For samples to be analyzed by western blot, cell lysates were prepared with RIPA lysis buffer (150 mM NaCl, 0.1% SDS, 1% Nonidet P40, 1% sodium deoxycholate and 10 mM sodium phosphate, pH 7.2) supplemented with protease and phosphatase inhibitors. After clearing by centrifugation at 12,000 rpm for 10 minutes at 4° C., the lysates were analyzed as described in the respective experiments.
# (§2) For western-blot, samples were denatured by boiling in 1× Laemmli buffer and run on an 8% SDS-PAGE gel. After transfer onto a PVDF membrane and blocking with 3% BSA, the membranes were incubated with primary antibodies overnight at 4° C., washed 3 times with TBST (Tris-buffered saline containing 0.05% Tween-20), incubated with secondary antibodies for 1 hour at room temperature and developed using chemoluminescence (cat #32209 from Pierce).
# Antibodies anti-HSP90 was procured from Santa Cruz Biotechnologies (H-114, cat #7947). […]
# [4] = system: beta-catenin (CTNNB1) Y654; assay: Western blot of beta-catenin Y654 phosphorylation; format: cell-based; conditions: BRAF^V600E CRC cell lines, FIG. 4A, 11C, 12A
# Experimental: as §1, §2
# [5] = system: A375; assay: Cell viability assay (CellTiter-Glo), GI50, 3-day treatment; format: cell-based; conditions: Homo sapiens, A-375, 72 h; A375 (BRAF^V600E melanoma); 50% growth inhibition after 3 days of treatment compared to control; read-out: GI50 concentrations
# Experimental: (§3) To assess the growth/survival response of cell lines to single or combinatorial drug treatments, we used CellTiter-Glo cell viability assay (Promega; cat #G7571). Cell culture and luminescence readouts were performed in 96- and 384-well plates after 3-day treatments. GI50 corresponds to the concentration of a given drug that causes 50% inhibition of cell growth (GI50). The effects of drug combinations on cell growth were assessed by calculating fold change in VEM-sensitivity and combination index (C.I.) that were experimentally measured from ≥9 individual datapoints around drugs' GI50, i.e. at GI50, 0.5×GI50, 2×GI50 concentrations of each drug per drug combination experiment. To address the particular effects of some drug treatments on some cell lines, the choice of experimental datapoints centered around drugs' GI50 effects was adjusted by including individual datapoints ranging from ≥GI25 to ≤GI75, leading to calculate fold change in VEM-sensitivity and combination index (C.I.) from 12 to 20 individual datapoints, as previously explained (7).
# [6] = system: HT29; assay: as above; format: cell-based; conditions: Homo sapiens, HT-29, 72 h; HT29 (BRAF^V600E CRC); 50% growth inhibition after 3 days of treatment compared to control; read-out: GI50 concentrations
# Experimental: as §3
# [7] = system: KM20; assay: as above; format: cell-based; conditions: 72 h; KM20 (BRAF^V600E CRC); 50% growth inhibition after 3 days of treatment compared to control; read-out: GI50 concentrations
# Experimental: as §3
# [8] = system: LIM2405; assay: as above; format: cell-based; conditions: 72 h; LIM2405 (BRAF^V600E CRC); 50% growth inhibition after 3 days of treatment compared to control; read-out: GI50 concentrations
# Experimental: as §3
# [9] = system: LS411N; assay: as above; format: cell-based; conditions: Homo sapiens, LS-411N, 72 h; LS411N (BRAF^V600E CRC); 50% growth inhibition after 3 days of treatment compared to control; read-out: GI50 concentrations
# Experimental: as §3
# [10] = system: OUMS23; assay: as above; format: cell-based; conditions: OUMS-23, 72 h; OUMS23 (CRC MAP3K8^amp); 50% growth inhibition after 3 days of treatment compared to control; read-out: GI50 concentrations
# Experimental: as §3
# [11] = system: RKO1; assay: as above; format: cell-based; conditions: 72 h; RKO1 (BRAF^V600E CRC); 50% growth inhibition after 3 days of treatment compared to control; read-out: GI50 concentrations
# Experimental: as §3
# [12] = system: SNUC5; assay: as above; format: cell-based; conditions: 72 h; SNUC5 (BRAF^V600E CRC); 50% growth inhibition after 3 days of treatment compared to control; read-out: GI50 concentrations
# Experimental: as §3
# [13] = system: Sk-Mel-28; assay: as above; format: cell-based; conditions: Homo sapiens, 72 h; Sk-Mel-28 (BRAF^V600E melanoma); 50% growth inhibition after 3 days of treatment compared to control; read-out: GI50 concentrations
# Experimental: as §3
# [14] = system: VACO432; assay: as above; format: cell-based; conditions: 72 h; VACO432 (BRAF^V600E CRC); 50% growth inhibition after 3 days of treatment compared to control; read-out: GI50 concentrations
# Experimental: as §3
# [15] = system: WiDr; assay: as above; format: cell-based; conditions: Homo sapiens, 72 h; WiDr (BRAF^V600E CRC); 50% growth inhibition after 3 days of treatment compared to control; read-out: GI50 concentrations
# Experimental: as §3
Compound,active and total SRC (IHC) [1],"increase in resistance to vemurafenib ([2]; BRAF^V600E CRC cells treated with PGE2, 3-day cell viability assays)","CI scores ([2]; PGE2 with vemurafenib in BRAF^V600E CRC cells, Bliss model)",SFK activation (phosphorylation of Y419) [3],phosphorylation of beta-catenin (CTNNB1) at Y654 [4],GI50 [5],GI50 [6],GI50 [7],GI50 [8],GI50 [9],GI50 [10],GI50 [11],GI50 [12],GI50 [13],GI50 [14],GI50 [15]
"CC(C)(C)c1nc(-c2cccc(NS(=O)(=O)c3c(F)cccc3F)c2F)c(-c2ccnc(N)n2)s1 [dabrafenib, N-[3-[5-(2-Amino-4-pyrimidinyl)-2-(2-methyli-2-propanyl)-1,3-tliazol-4-yl]-2-fluorophenyl]-2,6-difluorobenzenesulfonarmide]",statistically significant increases,–,–,–,–,–,–,–,–,–,–,–,–,–,–,–
"CCCCC[C@H](O)/C=C/[C@H]1[C@H](O)CC(=O)[C@@H]1C/C=C\CCCC(=O)O [PGE2, Prostaglandin E2]",–,2 to 4 fold,antagonism,increase in SFK activation,increase in phosphorylation,–,–,–,–,–,–,–,–,–,–,–
"Cc1nc(Nc2ncc(C(=O)Nc3c(C)cccc3Cl)s2)cc(N2CCN(CCO)CC2)n1 [dasatinib, N-(2-chloro-6-mnethylphenyl)-2-[[6-[4-(2-hydroxyethyl)piperazin-1-yl]-2-methylpyrimidin-4-yl]amino]-1,3-thiazole-5-carboxamide]",–,–,–,–,–,3.5 µM,8 µM,0.8 µM,1.5 µM,3 µM,1.9 µM,10 µM,6.5 µM,6.5 µM,2 µM,0.9 µM
"CC(=O)Nc1cccc(-n2c(=O)n(C3CC3)c(=O)c3c(Nc4ccc(I)cc4F)n(C)c(=O)c(C)c32)c1 [trametinib, N-[3-[3-cyclopropyl-5-(2-fluoro-4-iodoanilino)-6,8-dimethyl-2,4,7-trioxopyrido[4,3-d]pyrimidin-1-yl]phenyl]acetamide]",statistically significant increases,–,–,–,–,–,–,–,–,–,–,–,–,–,–,–
"COc1cc2ncnc(Nc3ccc(F)c(Cl)c3)c2cc1OCCCN1CCOCC1 [gefitinib, N-(3-chloro-4-fluorophenyl)-7-methoxy-6-(3-morpholin-4-ylpropoxy)quinazolin-4-amine]",–,–,–,–,–,30 µM,25 µM,20 µM,30 µM,30 µM,40 µM,40 µM,30 µM,20 µM,7.5 µM,10 µM
